In ChEMBL document CHEMBL5724709, “EUbOPEN Chemogenomics Library - IncuCyte” (2024):

Columns and labels:
Format in all cases: toxicity, cell-based
U2OS = experiment: Incucyte cell viability with U2OS; conditions: human, 24 h, 10 µM, compound concentration 10 uM
HEK-293T = experiment: Incucyte cell viability with HEK293T; conditions: human, 24 h, 10 µM, compound concentration 10 uM
Fibroblast = experiment: Incucyte cell viability with human fibroblast; conditions: 24 h, 10 µM, compound concentration 10 uM
Further: unitless GR value; below 1 slowed growth and below 0 cell loss.

SMILES | Growth Rate (U2OS; replicate number 1) | Growth Rate (U2OS; replicate number 2) | Growth Rate (HEK-293T; replicate number 1) | Growth Rate (HEK-293T; replicate number 2) | Growth Rate (Fibroblast; replicate number 1) | Growth Rate (Fibroblast; replicate number 2)
CC(C)n1nc(-c2cc3cc(O)ccc3[nH]2)c2c(N)ncnc21 | -0.49 | -0.01 | -0.17 | -0.09 | 0.59 | 0.98
CC(=O)Nc1ccc(OC[C@](C)(O)C(=O)Nc2ccc([N+](=O)[O-])c(C(F)(F)F)c2)cc1 | 1 | 0.76 | 0.72 | 0.87 | 0.07 | 1
COc1cc(Oc2ccnc3cc(OC)c(OC)cc23)ccc1NC(=O)NC(C)c1nccs1 (stereo not given) | 0.56 | 0.82 | 1 |  | 0.18 | -0.01
Oc1ccc(-c2c(-c3ccccc3)nn3c(C(F)(F)F)cc(C(F)(F)F)nc23)cc1 | 1 |  | 1 | 0.97 | 1 | 0.27
COc1ccc(N(C(=O)Oc2c(C)cccc2C)c2ccnc(Nc3ccc(N4CCN(C)CC4)cc3)n2)c(OC)c1 | 0.04 | 0.72 | 0.49 | 0.97 | 0.52 | 1
CCN1C(C)(C)CC(Oc2ccc(C(=O)Nc3ccc(NC(=O)Nc4cc(C(C)(C)C)on4)cc3)nc2)CC1(C)C | 0.51 | 0.66 | -0.29 | 0.58 | 0.74 | 0.78
Cc1cc(OCc2nnc(SC3CCCC3)n2-c2cccnc2)ccc1-c1ccc(S(C)(=O)=O)cc1 | -0.5 | -0.4 | -0.22 |  | -0.37 | -0.82
N=C(N)N/N=C/c1cccc(Cl)c1Cl | 0.24 | 0.53 | 0.5 | 0.8 | 0.46 | 0.86
O=C(COc1ccc(-c2oc3cc(O)c(C(=O)O)cc3c2C#Cc2cccc(Cl)c2)cc1)NC1CC1 | 0.39 | 0.84 | 0.87 | 0.84 | 0.84 | -0.06
O=C(C=Cc1ccc(O)cc1)c1ccc(O)cc1O | 0.9 | 0.75 | 0.72 | 0.82 | 0.64 | 1
Nc1c[nH]c(=O)c2cc(-c3ccccc3)sc12 | -0.48 | 0.33 | 0.88 | 0.73 | -0.61 | -0.86
O=C(Nc1ccc2[nH]nc(-c3ccncc3)c2c1)[C@@H]1CCN(CC(=O)N2CCN(c3ccc(-c4ncccn4)cc3)CC2)C1 | 0.65 | 1 | -0.08 | -0.01 | 1 | 
Cc1ncc(Cl)cc1NCc1ccc(C(=O)N[C@@H](CC2CCCC2)C(=O)NC2CC2)s1 | 0.37 | 0.86 | 0.59 | 0.85 | 0.64 | 0.26
O=C(C1CC1)N1CC[C@@H](Cc2n[nH]c(=O)n2-c2ccc(-c3ccc4occc4c3)cc2)C1 | 0.54 | 0.69 | 0.73 | 1 | 0.43 | 0
O=C(NO)c1cnc(NC2(c3ccccc3)CC2)nc1 | -0.38 | -0.13 | 0.73 | 0.94 | -0.29 | 0.31
CSc1cccc(Nc2ncc3cc(-c4c(Cl)cccc4Cl)c(=O)n(C)c3n2)c1 | -0.64 | -0.15 | -0.41 | 0.24 | -0.25 | -0.52
O=c1[nH]ccc2cc(F)c(NS(=O)(=O)c3ccc(N4CC[C@@H](O)C4)s3)cc12 | 1 | 0.94 | 0.79 | 0.98 | 0.99 | 0.64
Cc1cc2cc(NS(=O)(=O)c3ccc(C#N)cc3)ccc2n(C)c1=O | 1 |  | 0.88 |  | 0.71 | 0.65
Cc1ncsc1-c1ccc([C@H](C)NC(=O)[C@@H]2C[C@@H](O)CN2C(=O)[C@@H](NC(=O)COCCCOCCNC(=O)C[C@@H]2N=C(c3ccc(Cl)cc3)c3c(sc(C)c3C)-n3c(C)nnc32)C(C)(C)C)cc1 | -0.38 | 0.03 | 0.46 | 0.43 | -0.26 | -0.44

SMILES | Growth Rate (U2OS; replicate number 1) | Growth Rate (U2OS; replicate number 2) | Growth Rate (HEK-293T; replicate number 1) | Growth Rate (HEK-293T; replicate number 2) | Growth Rate (Fibroblast; replicate number 1) | Growth Rate (Fibroblast; replicate number 2)
Cc1cc(Cn2c(=O)n(Cc3cnc(C)s3)c(=O)c3cc(S(=O)(=O)NC4(C)CC4)ccc32)n(C)n1 | 0.64 | 0.54 | 0.6 | 0.74 | 0.47 | 0.68
FC(F)(F)Oc1ccc(Oc2ccnc(N3CCC(NC(=S)Nc4cccnc4)CC3)c2Cl)c(Cl)c1 | 0.35 | 0.56 | -0.1 | 0.12 | 0.38 | -0.07
C[C@@H]1CN(c2ncc(Cl)c(Nc3ccc4c(c3)n(CCC(C)(C)O)c(=O)n4C)n2)C[C@H](C)C1(F)F | 0.72 | 0.69 | 0.18 | 0.21 | 0.91 | -0.13
Cc1nn(CC(F)(F)F)cc1Nc1ncc(Br)c(NCc2ccc(S(N)(=O)=O)cc2)n1 | 1 | 0.83 | 0.53 | 1 | 1 | 
Cc1cc(-c2ccccc2)cc(C(=O)NNS(=O)(=O)c2ccccc2)c1F | 0.87 | 0.89 | 0.49 | 0.81 | 1 | 0.27
O=C(NCCc1cc(C(=O)NO)no1)c1ccc(Cl)c(Cl)c1 | 0.33 | 1 | 0.99 | 1 | 1 | 0.22
C[C@H](Nc1cc(Cl)nc2c1cnn2[C@@H]1O[C@H](COP(=O)(O)CP(=O)(O)O)[C@@H](O)[C@H]1O)c1ccccc1F | 1 |  | 0.88 | 1 | 0.88 | 1
C[C@H]1CCCN1Cc1nc2cc(NC(=O)c3ccc4c(cnn4C)c3)ccc2[nH]1 | 0.16 | 0.68 | 0.37 | 0.49 | 1 | 0.78
N#Cc1ccc([C@H]2CCCC[C@H]2O)cc1C(F)(F)F | 1 | 0.84 | 0.83 | 0.95 | 0.21 | 1
O=S(=O)(O)c1ccc2cc(/N=N/c3cc(S(=O)(=O)O)c4cccnc4c3O)ccc2c1 | -0.34 | 1 | 1 |  | 0.17 | -0.42
Cc1ncsc1-c1ccc(CNC(=O)[C@@H]2C[C@@H](O)CN2C(=O)[C@@H](NC(=O)COCCOCCOc2ccc(-c3ccc4ncnc(Nc5ccc(OCc6cccc(F)c6)c(Cl)c5)c4c3)cc2)C(C)(C)C)cc1 | 1 | 0.6 | 1 |  | 1 | 0.62
COc1cc(-c2cn(C)c(=O)c3cnccc23)cc(OC)c1CN(C)CC(=O)NCCOCCOCCNc1cccc2c1C(=O)N(C1CCC(=O)NC1=O)C2=O (stereo not given) | 0.78 | 0.96 | 0.8 | 0.98 | 0.26 | 0.72
O=C1/C(=N/Nc2ccc(S(=O)(=O)O)cc2)C(c2ccc([N+](=O)[O-])cc2)=NN1c1ccccc1 | 0.88 | 1 | 0.59 | 1 | 1 | 
CCn1c(=O)c(C)cn(Cc2nnc(-c3ccc(F)c(O)c3F)s2)c1=O | 1 | 0.92 | 1 | 0.97 | 0.03 | 1
CCCn1/c(=N/C(=O)c2cccc(C(N)=O)c2)[nH]c2ccccc21 | 1 | 0.99 | 0.77 | 0.9 | 1 | 
Cn1c(=O)c2c(nc(N3CCNCC3)n2Cc2nnc(-c3ccc(Cl)c(Cl)c3)o2)n(C)c1=O | 1 | 0.88 | 0.79 | 1 | 1 | 
CCC[C@H]1CNCc2c1[nH]c(=O)c(C#N)c2N1CCC2(CC1)CC2.Cl | 0.97 | 1 | 0.75 | 0.9 | -0.11 | 0.09
O=C(c1ccc2[nH]ccc2c1)N1CCN(S(=O)(=O)c2ccc3[nH]c(=O)oc3c2)CC1 | 0.5 | 0.82 | 0.91 | 1 | 0.24 | 1
COc1cc(O)c2c(c1)/C=C\C[C@H](O)[C@H](O)C(=O)/C=C\C[C@H](C)OC2=O | -0.54 | -0.35 | -0.3 | -0.25 | -0.67 | -0.85
